Data published in US6656959B1, “PDE IV inhibiting pyridine derivatives” (Janssen Pharmaceutica N.V., priority 2000, dated 2003).

Biological target: T1, recombinant human MNL phosphodiesterase type IV B (Homo sapiens, UniProt Q07343)
T1 construct: FLAG; made in house; host or cells: insect cells infected with recombinant baculovirus
Test: Inhibition of recombinant human mononuclear lymphocyte (MNL) phosphodiesterase type IV B produced in insect cells with a baculovirus vector
Format: biochemical
Details: remaining enzyme activity versus control
Description: Inhibition of Recombinant Human Mononuclear Lymphocyte (MNL) Phosphodiesterase Type IV B Produced in Insect Cells with a Baculovirus Vector
The alleviating and/or curing effect of the instant compounds on allergic and atopic diseases was assessed by an in vitro assay system to detect an inhibiting effect on the recombinant human MNL phosphodiesterase type IV B.
Seventy-two hours after infection with recombinant baculovirus, the insect cells were harvested and pelleted at 500 g for 5 minutes. The cells were lysed in 10 ml lysis-buffer consisting of 20 mM Tris, 10 mM EGTA, 2 mM Na2EDTA, 1% Triton-X-100, 1 mM Na3VO4, 10 mM NaF, 2 μg/ml of leupeptine, pepstatine and aprotinine, 0.3 μg/ml benzamidine and 100 μg/ml TPCK pH 7.5. After 5 minutes on ice, solubilized cells were centrifuged at 4000 rpm for 15 minutes at 4° C. The resulting supernatant was filtered through a 0.45 μm filter (Millipore) and brought to TBS buffer (50 mM Tris, 150 mM NaCl pH 7.4).
The supernatant containing phosphodiesterase (PDE) type IV B, was subsequently loaded onto a 5 ml anti-FLAG-M2 affinity gel column, previously activated with 5 ml 100 mM glycine pH 3.5 and equilibrated with 20 ml 50 mM Tris, 150 mM NaCl pH 7.4. After washing the column with equilibration buffer, PDE IV was eluted in 1.5 ml fractions containing 37.5 μl IM Tris pH 8. The fractions were dialyzed overnight against 20 mM Tris, 2mM Na2EDTA and 400 mM NaCl pH 7.5 and tested for PDE IV activity. Identification was done on SDS PAGE and Western Blot (anti-FLAG-M2). Active fractions were pooled, brought to 10% glycerol and stored at −70° C.
The incubation mixture (pH 8) (200 μl) contained 20 mM Tris, 10 mM magnesium sulphate, 0.8 μM ^3H-cAMP (310 mCi/mmole) and the phosphodiesterase type IV, the amount depending on the enzymatic activity. […]
The inhibiting effect of the present compounds on recombinant human MNL phosphodiesterase PDE IV B was measured at different concentrations of the instant compounds.

T1 sequence (Q07343 whole entry): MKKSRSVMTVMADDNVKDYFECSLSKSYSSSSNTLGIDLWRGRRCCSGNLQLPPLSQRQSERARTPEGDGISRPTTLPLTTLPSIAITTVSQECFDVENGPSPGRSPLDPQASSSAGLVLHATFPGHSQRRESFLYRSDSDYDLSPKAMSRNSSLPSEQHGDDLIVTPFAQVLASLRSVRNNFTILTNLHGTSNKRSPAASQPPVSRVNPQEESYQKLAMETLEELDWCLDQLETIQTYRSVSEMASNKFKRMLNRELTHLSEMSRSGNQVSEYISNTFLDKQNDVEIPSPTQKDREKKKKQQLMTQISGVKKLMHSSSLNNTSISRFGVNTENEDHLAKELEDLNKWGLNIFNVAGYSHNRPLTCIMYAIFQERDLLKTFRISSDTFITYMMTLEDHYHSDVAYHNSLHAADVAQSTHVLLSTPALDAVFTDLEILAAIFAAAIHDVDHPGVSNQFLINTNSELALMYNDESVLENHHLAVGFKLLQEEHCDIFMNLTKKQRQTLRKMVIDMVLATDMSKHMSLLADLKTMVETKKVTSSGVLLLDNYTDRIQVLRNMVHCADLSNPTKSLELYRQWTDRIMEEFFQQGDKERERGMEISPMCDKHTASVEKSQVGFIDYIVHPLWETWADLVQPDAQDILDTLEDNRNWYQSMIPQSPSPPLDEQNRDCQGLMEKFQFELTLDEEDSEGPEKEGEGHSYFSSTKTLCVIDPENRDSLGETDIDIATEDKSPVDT

Row | % Activity (% activity of PDE IV B versus control) (Test Dose 10^−7 M) | % Activity (% activity of PDE IV B versus control) (Test Dose 10^−6 M) | SMILES
1 | 25% | – | COc1ccc(C(C)Cn2cc[nH]c2=NC#N)nc1OC1CCCC1 (racemic) [Compound 22, (±)-[1-[2-[6-(cyclopentyloxy)-5-methoxy-2-pyridinyl]propyl]-1,3-dihydro-2H-imidazol-2-ylidene]cyanamide]
2 | – | 35% | COc1cnc(C(C)(O)Cn2cc[nH]c2=O)cc1OCCCCCc1ccccc1 (racemic) [Compound 23, (±)-1,3-dihydro-1-[2-hydroxy-2-[5-methoxy-4-[(5-phenylpentyl)oxy]-2-pyridinyl]propyl]-2H-imidazol-2-one]
3 | – | 77% | COc1cnc(C(O)Cn2cc[nH]c2=O)cc1OCCCCCc1ccccc1 (stereo not drawn) [Compound 18, 1,3-dihydro-1-[2-hydroxy-2-[5-methoxy-4-[(5-phenylpentyl)oxy]-2-pyridinyl]ethyl]-2H-imidazol-2-one]
